Results taken from patent publication US20090221829A1 (priority 2005, published 2009).
Where a name gives a salt, the structure may show the parent alone.

Tests used:
[1] = test system: Candida albicans(KCTC 1940), Aspergillus niger (ATCC 9642) and Saccharomyces cerevisiae; test: Relative antifungal activity by agar dilution method (vs Miconazole); format: cell-based;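 also: scores 5 to 7 mean a lower fungicidal concentration than Miconazole so higher is more potent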
Description: Novel compounds represented by the above chemical formula (I), and the relative activities in accordance with the agar dilution method in Sabouraud dextrose agar media, Czapek agar media and Yeast Extract-Peptone-Dextrose agar media for Candida albicans(KCTC 1940), Aspergillus niger (ATCC 9642) and Saccharomyces cerevisiae are described respectively in following Table 1.

[2] = test system: various kinds of Candida; test: MIC (Minimal Inhibitory Concentration) data; format: cell-based; conditions: unit assumed
[3] = agar dilution method, fungicidal concentration relative to control drug Miconazole (=4)

SMILES | melting point [°C] | Relative Activity [1, 3] | further results
CCCCc1ccc(C2=[N+](Cc3ccccc3F)CCc3cc4c(cc32)OCO4)cc1.[Cl-] | 101 | – | –
CC(C)(C)c1ccc(C2=[N+](Cc3ccccc3F)CCc3cc4c(cc32)OCO4)cc1.[Cl-] | 148 | – | –
CC(C)C1=[N+](Cc2ccccc2F)CCc2cc3c(cc21)OCO3.[Cl-] | 114 | – | –
CCCCCCCC1=[N+](Cc2ccccc2F)CCc2cc3c(cc21)OCO3.[Cl-] | 94 | – | –
COc1cc2c(cc1OC)C(CCc1ccc(C(C)(C)C)cc1)=[N+](Cc1ccccc1F)CC2 (as salt: chloride) [Compound No. 124, 1-(2-(4-t-butylphenyl))ethyl-2-(2-fluorophenyl)methyl-3,4-dihydro-6,7-dimethoxyisoquinolinium chloride] | 103 | – | –
COc1ccc(C[N+]2=C(CCc3ccc(C(C)(C)C)cc3)c3cc(OC)c(OC)cc3CC2)cc1OC (as salt: chloride) [Compound No. 125, 1-(2-(4-t-butylphenyl))ethyl-2-(3,4-dimethoxyphenyl)methyl-3,4-dihydro-6,7-dimethoxyisoquinolinium chloride] | 100 | – | –
COc1cc2c(cc1OC)C(CCc1ccc(C(C)(C)C)cc1)=[N+](Cc1cccc(OC)c1OCc1ccc(C(F)(F)F)cc1)CC2 (as salt: chloride) [Compound No. 132, 1-(2-(4-t-butylphenyl))ethyl-2-(2-(4-trifluoromethylbenzyloxy)-3-methoxyphenyl)methyl-3,4-dihydro-6,7-dimethoxy isoquinolinium chloride] | 60 | – | –
COc1cc2c(cc1OC)C(CCc1ccc(C(C)(C)C)cc1)=[N+](Cc1cccc(OC)c1OCc1c(F)cccc1Cl)CC2 (as salt: chloride) [Compound No. 133, 1-(2-(4-t-butylphenyl))ethyl-2-(2-(2-chloro-6-fluorobenzyloxy)-3-methoxyphenyl)methyl-3,4-dihydro-6,7-dimethoxyisoquinolinium chloride] | 63 | – | –
COc1cc2c(cc1OC)C(CCc1ccc(C(C)(C)C)cc1)=[N+](Cc1cccc(OC)c1OCc1c(F)c(F)c(C(F)(F)F)c(F)c1F)CC2 (as salt: chloride) [Compound No. 135, 1-(2-(4-t-butylphenyl))ethyl-2-(2-(2,3,5,6-tetrafluoro-4-trifluoromethylbenzyloxy)-3-methoxyphenyl)methyl-3,4-dihydro-6,7-dimethoxy isoquinolinium chloride] | 140 | – | –
COc1cc2cc[n+](Cc3cccc(OC)c3OCc3ccc(C(F)(F)F)cc3)c(CCc3ccc(C(C)(C)C)cc3)c2cc1OC (as salt: chloride) [Compound No. 149, 1-(2-(4-t-butylphenyl))ethyl-2-(2-(4-trifluoromethylbenzyloxy)-3-methoxyphenyl)methyl-6,7-dimethoxyisoquinolinium chloride] | 110 | – | –
CCCCCCCC1=[N+](Cc2ccccc2F)CCc2cc(OC)c(OC)cc21.[Cl-] [Compound No. 11, 1-n-heptyl-2-(2-fluorophenyl)methyl-3,4-dihydro-6,7-dimethoxyisoquinolinium chloride] | 112 | 4 | –
COc1cc2c(cc1OC)C(c1cc(F)cc(F)c1)=[N+](Cc1ccccc1F)CC2.[Cl-] [Compound No. 18, 1-(3,5-difluorophenyl)-2-(2-fluorophenyl)methyl-3,4-dihydro-6,7-dimethoxyisoquinolinium chloride] | 118 | 6 | –
COc1cc2c(cc1OC)C(c1ccc(C(C)(C)C)cc1)=[N+](Cc1ccccc1F)CC2.[Cl-] [Compound No. 22, 1-(4-t-butylphenyl)-2-(2-fluorophenyl)methyl-3,4-dihydro-6,7-dimethoxyisoquinolinium chloride] | 125 | 6 | –
COc1cc2c(cc1OC)C(Cc1ccc(Cl)cc1Cl)=[N+](Cc1ccccc1F)CC2.[Cl-] [Compound No. 25, 1-(2,4-dichlorophenyl)methyl-2-(2-fluorophenyl)methyl-3,4-dihydro-6,7-dimethoxyisoquinolinium chloride] | 182 | 6 | –
COc1cc2c(cc1OC)C(C)=[N+](Cc1ccc(F)c(F)c1)CC2.[Cl-] [Compound No. 39, 1-methyl-2-(3,4-difluorophenyl)methyl-3,4-dihydro-6,7-dimethoxyisoquinolinium chloride] | 88 | 6 | –
COc1cc2c(cc1OC)C(c1ccc(C(C)(C)C)cc1)=[N+](Cc1ccc(F)c(F)c1)CC2.[Cl-] [Compound No. 48, 1-(4-t-butylphenyl)-2-(3,4-difluorophenyl)methyl-3,4-dihydro-6,7-dimethoxyisoquinolinium chloride] | 97 | 6 | –
COc1cc2c(cc1OC)C(c1ccc(C(C)(C)C)cc1)=[N+](Cc1ccccc1Cl)CC2.[Cl-] [Compound No. 55, 1-(4-t-butylphenyl)-2-(2-chlorophenyl)methyl-3,4-dihydro-6,7-dimethoxyisoquinolinium chloride] | 117 | 6 | –
CCCCCC1=[N+](Cc2c(F)cccc2F)CCc2cc(OC)c(OC)cc21.[Cl-] [Compound No. 57, 1-n-pentyl-2-(2,6-difluorophenyl)methyl-3,4-dihydro-6,7-dimethoxyisoquinolinium chloride] | 196 | 6 | –
CCCCCCCCCCCCCCCC1=[N+](Cc2c(F)cccc2F)CCc2cc(OC)c(OC)cc21.[Cl-] [Compound No. 60, 1-n-pentadecyl-2-(2,6-difluorophenyl)methyl-3,4-dihydro-6,7-dimethoxyisoquinolinium chloride] | 104 | 1 | –
COc1cc2c(cc1OC)C(c1ccccc1F)=[N+](Cc1c(F)cccc1F)CC2.[Cl-] [Compound No. 62, 1-(2-fluorophenyl)-2-(2,6-difluorophenyl)methyl-3,4-dihydro-6,7-dimethoxyisoquinolinium chloride] | 79 | 6 | –
COc1ccc2c(c1)CC[N+](Cc1ccccc1F)=C2C(C)C.[Cl-] [Compound No. 83, 1-i-propyl-2-(2-fluorophenyl)methyl-3,4-dihydro-6-methoxyisoquinolinium chloride] | 102 | 6 | –
CC1=[N+](Cc2ccc(F)c(F)c2)CCc2cc3c(cc21)OCO3.[Cl-] [Compound No. 111, 1-methyl-2-(3,4-difluorophenyl)methyl-3,4-dihydro-6,7-methylenedioxyisoquinolinium chloride] | 88 | 6 | –
CCCCCCC1=[N+](Cc2ccc(C(C)(C)C)cc2)CCc2cc(OC)c(OC)cc21.[Cl-] [Compound No. 126, 1-hexyl-2-(4-t-butylphenyl)methyl-3,4-dihydro-6,7-dimethoxy isoquinolinium chloride] | 34 | 4 | –
CCCCCCCCCCCCCCCC1=[N+](Cc2ccc(C(C)(C)C)cc2)CCc2cc(OC)c(OC)cc21.[Cl-] [Compound No. 128, 1-pentadecyl-2-(4-t-butylphenyl)methyl-3,4-dihydro-6,7-dimethoxy isoquinolinium chloride] | 166 | 1 | –
COc1cc2c(cc1OC)C(CCc1ccc(C(C)(C)C)cc1)=[N+](Cc1cccc(OC)c1OCc1ccc(C(F)(F)F)cc1)CC2 [Compound No. 132, 1-(2-(4-t-butylphenyl))ethyl-2-(2-(4-trifluoromethylbenzyloxy)-3-methoxyphenyl)methyl-3,4-dihydro-6,7-dimethoxy isoquinolinium chloride] | – | 1 | MIC ([2]; C. albicans ATCC 11651): 3.12 µg/mL; MIC ([2]; C. albicans ATCC 28838): 1.56 µg/mL; MIC ([2]; C. albicans IFO 1385): 6.25 µg/mL; MIC ([2]; C. albicans OY-003): 3.12 µg/mL; MIC ([2]; C. albicans OY-019): 3.12 µg/mL; MIC ([2]; C. albicans U.K): 1.56 µg/mL; MIC ([2]; C. glabrata): 12.5 µg/mL; MIC ([2]; C. glulliermondi): 3.12 µg/mL; MIC ([2]; C. krusei (KCTC7273)): 1.56 µg/mL; MIC ([2]; C. parapsilosis): 6.5 µg/mL
COc1cc2c(cc1OC)C(CCc1ccc(C(C)(C)C)cc1)=[N+](Cc1cccc(OC)c1OCc1c(F)c(F)c(C(F)(F)F)c(F)c1F)CC2 [Compound No. 135, 1-(2-(4-t-butylphenyl))ethyl-2-(2-(2,3,5,6-tetrafluoro-4-trifluoromethylbenzyloxy)-3-methoxyphenyl)methyl-3,4-dihydro-6,7-dimethoxy isoquinolinium chloride] | – | 2 | MIC ([2]; C. albicans ATCC 11651): 6.25 µg/mL; MIC ([2]; C. albicans ATCC 28838): 3.12 µg/mL; MIC ([2]; C. albicans IFO 1385): 6.25 µg/mL; MIC ([2]; C. albicans OY-003): 3.12 µg/mL; MIC ([2]; C. albicans OY-019): 6.25 µg/mL; MIC ([2]; C. albicans U.K): 6.25 µg/mL; MIC ([2]; C. glabrata): 12.5 µg/mL; MIC ([2]; C. glulliermondi): 3.12 µg/mL; MIC ([2]; C. krusei (KCTC7273)): 1.56 µg/mL; MIC ([2]; C. parapsilosis): 12.5 µg/mL
COc1cc2c(cc1OC)C(C)=[N+](Cc1cccc(OC)c1OCc1ccc(C(C)(C)C)cc1)CC2.[Cl-] [Compound No. 138, 1-methyl-2-(2-(4-t-butylbenzyloxy)-3-methoxyphenyl)methyl-3,4-dihydro-6,7-dimethoxy isoquinolinium chloride] | 105 | 6 | –
COc1cc2cc[n+](Cc3cccc(OC)c3OCc3ccc(C(F)(F)F)cc3)c(CCc3ccc(C(C)(C)C)cc3)c2cc1OC [Compound No. 149, 1-(2-(4-t-butylphenyl))ethyl-2-(2-(4-trifluoromethylbenzyloxy)-3-methoxyphenyl)methyl-6,7-dimethoxyisoquinolinium chloride] | – | – | MIC ([2]; C. albicans ATCC 11651): 0.78 µg/mL; MIC ([2]; C. albicans ATCC 28838): 1.56 µg/mL; MIC ([2]; C. albicans IFO 1385): 3.12 µg/mL; MIC ([2]; C. albicans OY-003): 0.78 µg/mL; MIC ([2]; C. albicans OY-019): 1.56 µg/mL; MIC ([2]; C. albicans U.K): 0.78 µg/mL; MIC ([2]; C. albicnas ATCC 10231): 0.78 µg/mL; MIC ([2]; C. glabrata): 6.25 µg/mL; MIC ([2]; C. glulliermondi): 1.56 µg/mL; MIC ([2]; C. krusei (KCTC7273)): 1.56 µg/mL; MIC ([2]; C. parapsilosis): 6.25 µg/mL; Relative Activity ([1]; antifungal activity relative to Miconazole, agar dilution): 1
